Data as given in US20220296620A1, “AGENT FOR PREVENTING OR TREATING MILD COGNITIVE IMPAIRMENT” (NATIONAL UNIVERSITY CORPORATION TOKYO MEDICAL AND DENTAL …, priority 2019, published 2022).

Experiments:
[1] = tested on: pSer46-MARCKS in brain neurons of 5×FAD mice; assay: pSer46-MARCKS levels of brain neurons by immunohistochemical staining; type: in vivo, mouse; details: 5×FAD mice given at 1 month of age, measured at 6 months of age, vs 5×FAD mice without administration (FIG. 16)
[2] = tested on: nuclear YAP in brain neurons of 5×FAD mice; assay: Amounts of nuclear YAP in brain neurons by immunohistochemical staining; type: in vivo, mouse; details: 5×FAD mice given at 1 month of age, measured at 6 months of age, vs 5×FAD mice without administration (FIG. 10)
Protocol: (§1) Brain tissues were excised from the test subjects or the AD mouse models and fixed in a 4% PFA (paraformaldehyde) solution. Then, 5 µm thick paraffin sections were prepared using a microtome (manufactured by Yamato Kohki Industrial Co., Ltd.). […] Fluorescence signals derived from each primary antibody were detected using a fluorescence microscope (IX70, manufactured by Olympus Corp.) or a confocal laser scanning microscope (FV1200, manufactured by Olympus Corp.) to obtain images (specifically, YAP images, phosphorylated LATS1 serine 909 (Ser909) [pLATS1] images, images of the detected DAPI fluorescence signals derived from the cells nuclei (DAPI images), and overlaid images thereof (merged images). In the DAPI images, cells having the deformed and/or shrunk cell nuclei were evaluated as necrotic cells, and the numbers of necrotic cells in 30 fields of view (143 μm×143 μm) were measured to calculate a necrotic cell number per field of view (see the ordinates of FIGS. 5A to 5C). […]

5×FAD mice = assay: Cognitive function analysis, Y-shaped maze score of alternation behavior; type: in vivo, mouse; details: tested at 6 months of age
Protocol: The administration of AAV-YAPΔC-ins61 or AAV-NINS (titer: 1×10^10 vector genomes/mL each, 1 μL) to mouse RSD (retrosplenial cortex) (depth of −2.0 mm from the bregma and 0.6 mm mediolaterally) and the subarachnoidal administration of S1P (40 nM, 0.15 μL/hr; manufactured by Sigma-Aldrich Co. LLC) or control artificial cerebrospinal fluid (aCSF) (0.15 μL/hr; manufactured by Alzet Osmotic Pressures) to the mice were performed according to the method described in the document “Yang, G. et al., Nat Protoc 5, 201-208 (2010)”. The administration of AAV-YAPΔC-ins61 or AAV-NINS to the mice was performed at 1 or 5 months of age. The administration of S1P to the mice was continuously performed for a period from 1 to 6 months of age or for a period from 5 to 6 months of age.
The normal mice (non-transgenic B6/SJL mice) or the 5×FAD mice given AAV-YAPΔC-ins61 or AAV-NINS, or S1P were tested for their exploratory behavior when aged 6 months using a Y-shaped maze (manufactured by O'HARA & Co., Ltd.) in which three arms of the same size were joined at […]
A value obtained by dividing the number of movements from the immediately preceding arm where the mouse stayed to an arm different from the immediately preceding arm where the mouse stayed by the number of movements in the arms was calculated as the rate of spontaneous alternation (score of alternation behavior; see FIG. 14).

[3] = tested on: ER in brain neurons of 5×FAD mice; assay: In vivo imaging of ER volumes in brain neurons (ER-Tracker Red); design: species or system mouse; details: 5×FAD mice given at 1 month of age, measured at 6 months of age (FIGS. 13 and 15)
Protocol: The skull bones on RSD surface of normal mice (non-transgenic B6/SJL mice) or 5×FAD mice were removed using a high-speed microdrill. 1 μL of a liquid containing 100 nM amyloid-binding substance BTA1 (2-(4′-(methylamino)phenyl) benzothiazole, manufactured by Sigma-Aldrich Co. LLC) and 100 nM ER-Tracker Red (E34250, manufactured by Thermo
Fisher Scientific Inc.) was injected to RSD in the presence of 1% isoflurane (anesthetic). 4 hours later, ER-Tracker Red was imaged using an upright microscope (BX61WI, manufactured by Olympus Corp.) and a scanning laser microscope system FV1000MPE2 (manufactured by Olympus Corp.) equipped with an immersion objective lens (XLPlanN25xW, numerical aperture: 1.05) and a pulse laser (MaiTaiHP DeepSee, manufactured by Spectra-Physics, Inc.) to obtain images of detected BTA1 fluorescence signals (BTA1 images) and images of detected ER-Tracker Red fluorescence signals (ER-Tracker images). The fluorescence signal volumes of ER-Tracker Red (i.e., volumes of ER) were measured. […]

[4] = tested on: extracellular amyloid β in brain tissues of 5×FAD mice; assay: Extracellular amyloid β levels of brain tissues by immunohistochemical staining; type: in vivo, mouse; details: 5×FAD mice given at 1 month of age, measured at 6 months of age, vs 5×FAD mice without administration (FIG. 11)
Protocol: as §1

CCCCCCCCCCCCC/C=C/[C@@H](O)[C@@H](N)COP(=O)(O)O [SiP, sphingosine 1-phosphate]
pSer46-MARCKS levels of brain neurons [1]: decreased to the levels of normal mice
amounts of nuclear YAP in brain neurons [2]: increased and/or restored to the levels of normal mice
cognitive functions (score of alternation behavior, Y-shaped maze) (5×FAD mice; 5×FAD mice given at 1 month of age, vs 5×FAD mice without administration (FIGS. 17A and 17B)): equivalent to the ones of normal mice
cognitive functions (score of alternation behavior, Y-shaped maze) (5×FAD mice; 5×FAD mice given at 5 months of age, vs 5×FAD mice without administration (FIGS. 17C and 17D)): equivalent to the ones of normal mice
ER dilation and instability in brain neurons [3]: significantly resolved ER dilation and instability
extracellular amyloid β levels of brain tissues [4]: lower
